Article PMC3746001 (ACS chemical biology, 2013)
“And” between values parts separate entries of the source, which are not always exact repeats. Identical values can stand only once.

Tests used:
[1] = molecular target: T1, human DNA polymerase eta (hpol η) (Homo sapiens, UniProt Q9Y253); assay: Fluorescence-based polymerase strand-displacement assay, hpol η; assay type: biochemical; conditions: for IC50: read-out: IC50 for inhibition of hpol η, 10 nM hpol η, 50 nM DNA, 0.1 mM dTTP, mean ± standard deviation, triplicate
T1 sequence (Q9Y253 1-437): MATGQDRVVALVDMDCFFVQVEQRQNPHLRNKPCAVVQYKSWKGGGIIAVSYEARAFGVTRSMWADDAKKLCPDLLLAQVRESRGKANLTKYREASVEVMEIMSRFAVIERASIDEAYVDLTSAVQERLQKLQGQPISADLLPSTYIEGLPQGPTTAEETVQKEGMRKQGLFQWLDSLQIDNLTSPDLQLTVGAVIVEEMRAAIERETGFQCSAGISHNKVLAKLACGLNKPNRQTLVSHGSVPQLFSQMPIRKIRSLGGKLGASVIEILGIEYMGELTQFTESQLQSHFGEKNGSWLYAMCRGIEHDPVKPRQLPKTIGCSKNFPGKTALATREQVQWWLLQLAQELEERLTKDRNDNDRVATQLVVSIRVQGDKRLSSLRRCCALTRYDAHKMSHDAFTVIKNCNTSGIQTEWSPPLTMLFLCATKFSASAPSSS

hetero-dimeric hpol γ = molecular target: T2, hetero-dimeric hpol γ (Homo sapiens, UniProt P54098); assay: Fluorescence-based polymerase assay, hpol γ; assay type: biochemical; conditions: read-out: IC50 for inhibition of hpol γ; 10 nM hpol γ, 50 nM DNA; mean ± standard deviation
T2 sequence (P54098 1-1239): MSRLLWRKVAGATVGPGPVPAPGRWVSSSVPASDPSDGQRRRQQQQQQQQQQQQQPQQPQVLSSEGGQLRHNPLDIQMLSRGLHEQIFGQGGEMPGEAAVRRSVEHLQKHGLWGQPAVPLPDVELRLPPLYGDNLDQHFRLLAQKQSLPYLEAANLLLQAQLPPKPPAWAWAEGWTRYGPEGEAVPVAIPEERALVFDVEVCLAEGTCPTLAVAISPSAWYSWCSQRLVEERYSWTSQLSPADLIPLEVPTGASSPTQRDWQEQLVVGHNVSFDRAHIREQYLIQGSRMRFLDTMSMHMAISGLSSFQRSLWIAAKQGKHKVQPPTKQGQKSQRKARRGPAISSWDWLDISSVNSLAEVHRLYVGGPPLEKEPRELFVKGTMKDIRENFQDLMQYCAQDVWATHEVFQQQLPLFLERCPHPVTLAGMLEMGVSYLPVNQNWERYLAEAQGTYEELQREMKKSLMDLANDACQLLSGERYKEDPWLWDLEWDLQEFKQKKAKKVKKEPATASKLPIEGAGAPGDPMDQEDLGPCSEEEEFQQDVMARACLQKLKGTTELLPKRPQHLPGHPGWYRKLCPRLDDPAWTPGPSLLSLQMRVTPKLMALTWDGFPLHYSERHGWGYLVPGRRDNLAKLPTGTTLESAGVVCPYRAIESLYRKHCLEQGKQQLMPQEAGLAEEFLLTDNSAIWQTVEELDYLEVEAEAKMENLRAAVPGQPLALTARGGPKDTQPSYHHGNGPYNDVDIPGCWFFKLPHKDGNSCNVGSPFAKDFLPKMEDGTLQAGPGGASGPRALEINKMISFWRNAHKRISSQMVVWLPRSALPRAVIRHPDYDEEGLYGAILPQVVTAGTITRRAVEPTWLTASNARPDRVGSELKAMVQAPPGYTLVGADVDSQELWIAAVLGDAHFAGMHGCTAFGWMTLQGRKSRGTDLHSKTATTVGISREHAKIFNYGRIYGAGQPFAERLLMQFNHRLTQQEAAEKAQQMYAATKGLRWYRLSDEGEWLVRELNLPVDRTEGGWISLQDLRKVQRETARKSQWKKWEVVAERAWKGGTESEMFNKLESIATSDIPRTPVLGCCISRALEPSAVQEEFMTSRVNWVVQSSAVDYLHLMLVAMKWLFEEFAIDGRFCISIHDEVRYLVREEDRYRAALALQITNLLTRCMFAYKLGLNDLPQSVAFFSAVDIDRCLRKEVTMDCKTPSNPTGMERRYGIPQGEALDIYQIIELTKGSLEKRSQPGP
T2 sequence (Q9UHN1 26-485 partner limits assumed): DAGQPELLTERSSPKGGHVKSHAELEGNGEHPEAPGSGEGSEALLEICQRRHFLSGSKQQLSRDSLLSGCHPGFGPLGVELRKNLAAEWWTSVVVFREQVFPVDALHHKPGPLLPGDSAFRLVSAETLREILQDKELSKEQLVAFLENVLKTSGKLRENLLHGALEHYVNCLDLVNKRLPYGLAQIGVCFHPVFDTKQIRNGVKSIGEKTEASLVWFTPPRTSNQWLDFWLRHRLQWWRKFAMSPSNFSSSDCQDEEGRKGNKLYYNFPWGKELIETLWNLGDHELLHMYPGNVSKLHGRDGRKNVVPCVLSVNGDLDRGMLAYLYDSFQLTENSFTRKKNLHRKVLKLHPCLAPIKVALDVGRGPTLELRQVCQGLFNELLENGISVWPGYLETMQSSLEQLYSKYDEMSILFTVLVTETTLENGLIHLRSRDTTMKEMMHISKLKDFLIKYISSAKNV

[2] = molecular target: T3, human Y-family DNA polymerase kappa (hpol κ) (Homo sapiens, UniProt Q9UBT6); assay: Fluorescence-based polymerase assay, hpol κ; assay type: biochemical; conditions: read-out: IC50 for inhibition of hpol κ; 3 nM hpol κ, 60 nM DNA; mean ± standard deviation
T3 sequence (Q9UBT6 19-526): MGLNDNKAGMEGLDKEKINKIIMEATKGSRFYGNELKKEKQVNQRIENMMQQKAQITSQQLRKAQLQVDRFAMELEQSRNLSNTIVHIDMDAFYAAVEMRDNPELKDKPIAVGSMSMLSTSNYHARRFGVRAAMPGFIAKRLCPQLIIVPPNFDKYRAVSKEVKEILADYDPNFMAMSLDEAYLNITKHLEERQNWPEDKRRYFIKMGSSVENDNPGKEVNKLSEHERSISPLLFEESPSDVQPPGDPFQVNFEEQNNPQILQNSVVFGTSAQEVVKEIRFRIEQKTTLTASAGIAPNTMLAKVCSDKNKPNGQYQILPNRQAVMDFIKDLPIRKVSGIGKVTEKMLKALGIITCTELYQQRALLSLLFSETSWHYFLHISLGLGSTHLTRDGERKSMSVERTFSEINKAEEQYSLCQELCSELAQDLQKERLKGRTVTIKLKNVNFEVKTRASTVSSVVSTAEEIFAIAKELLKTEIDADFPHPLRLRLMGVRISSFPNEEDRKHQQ

human tumor cell lines = conditions: cited from earlier work
hpol η = conditions: cited from earlier work
hpol ι = molecular target: T4, hpol ι (Homo sapiens, UniProt Q9UNA4); conditions: cited from earlier work
T4 sequence (Q9UNA4 26-446): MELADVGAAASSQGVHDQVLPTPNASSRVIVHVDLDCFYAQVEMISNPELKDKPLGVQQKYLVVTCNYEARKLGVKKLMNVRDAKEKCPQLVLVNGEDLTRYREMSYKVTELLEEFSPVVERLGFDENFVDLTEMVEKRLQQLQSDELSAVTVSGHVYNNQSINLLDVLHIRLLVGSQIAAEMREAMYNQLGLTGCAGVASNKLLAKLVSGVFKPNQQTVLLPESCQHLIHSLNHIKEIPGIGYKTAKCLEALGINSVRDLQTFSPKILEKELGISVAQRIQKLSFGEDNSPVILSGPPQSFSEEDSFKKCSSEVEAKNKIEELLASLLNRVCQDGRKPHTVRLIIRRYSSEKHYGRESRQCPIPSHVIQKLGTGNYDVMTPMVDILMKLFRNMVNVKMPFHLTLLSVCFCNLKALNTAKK

hpol β = conditions: cited from earlier work

Structure (SMILES) | IC50 [1] | IC50 for inhibition of hpol η (hpol η) | IC50 for inhibition of hpol β (hpol β) | Specificity against hpol β (hpol β) | IC50 for inhibition of hpol ι (hpol ι) | other results
O=C1NC(=S)NC(=O)C1=Cc1cn(C(=O)c2cccc3ccccc23)c2ccc(Cl)cc12 [ITBA-16] | 16 µM and 15.8 µM |  |  |  |  | Fold by which IC50 for hpol η is lower than any of the other pols tested ([1]; hpol η versus seven other polymerases): over 2 fold; IC50 (hetero-dimeric hpol γ): 35.3 ± 2.9 µM; IC50 [2]: 32.9 ± 3.2 µM
O=C1NC(=S)NC(=O)C1=Cc1cn(C(=O)c2cccc3ccccc23)c2ccc(Cl)cc12 [ITBA-17] |  |  |  |  |  | Anti-proliferative and cytotoxic properties (human tumor cell lines): potent anti-proliferative and cytotoxic properties
O=C1NC(=S)NC(=O)C1=Cc1cn(C(=O)c2ccc3ccccc3c2)c2ccccc12 [ITBA-18] | 67.8 ± 3.3 µM |  |  |  |  | Inhibition of hpol η activity (percent activity relative to control), in words ([1]; 50 μM compound, relative to DMSO control (Figure 4C)): roughly equal activity against hpol η
CC(C)c1ccc2c(c1)c(SC(C)(C)C)c(CC(C)(C)C(=O)O)n2Cc1ccc(Cl)cc1 [MK886] |  |  |  |  |  | IC50 (hpol η; read-out: IC50 for inhibition of hpol η): ~46 µM; Inhibition of hpol ι relative to other Y-family pols (hpol ι; hpol ι versus other Y-family pols): five- to eight-times more effectively; IC50 (hpol ι; read-out: IC50 for inhibition of hpol ι): 9 µM
O=C(O)C1=CC(=C(c2ccc(O)c(C(=O)O)c2)c2ccc(O)c(C(=O)O)c2)C=CC1=O [aurintricarboxylic acid] |  | sub-micromolar | sub-micromolar | greater than 2 fold | sub-micromolar | 
O=c1oc2c(O)c(O)cc3c(=O)oc4c(O)c(O)cc1c4c23 [ellagic acid] |  | sub-micromolar | sub-micromolar | greater than 2 fold | sub-micromolar | 
